Numbered stars: 1 amine (or outer) side, 2 acyl side, 3 side chain; on linkers, the order of the positions; unused ones are H or OH. Bridge positions count the residues as written; N and C are the ends. Square brackets hold non-standard residues; d marks the D form. Peptide text beside a SMILES is read from it. dAbu(3S-yl) = C[C@@H]([C@@H](N[*:1])C(=O)[*:2])[*:3]; pGlu = O=C1CC[C@@H](C(=O)O)N1
Columns and labels:
GAL1R = molecular target: T1, GAL1R (Homo sapiens, UniProt P47211); test: SRE luciferase reporter assay, GAL1R-transfected HEK293 Gqi cells; details: transiently transfected HEK293 Gqi cells; up to 10 µM, 5 h
T1 sequence (P47211 1-349): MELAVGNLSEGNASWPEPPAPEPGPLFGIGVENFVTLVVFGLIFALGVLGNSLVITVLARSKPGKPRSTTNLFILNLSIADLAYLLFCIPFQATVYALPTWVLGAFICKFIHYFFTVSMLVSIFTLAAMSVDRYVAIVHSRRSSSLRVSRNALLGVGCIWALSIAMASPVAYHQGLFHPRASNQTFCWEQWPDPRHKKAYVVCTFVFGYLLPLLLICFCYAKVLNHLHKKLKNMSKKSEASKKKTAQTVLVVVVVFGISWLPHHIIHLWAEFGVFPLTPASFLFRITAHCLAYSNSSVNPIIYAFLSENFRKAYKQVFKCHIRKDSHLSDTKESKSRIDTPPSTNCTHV

[1] = tested on: non-fasted male Wistar rats; test: Food intake and body weight after intranasal application of peptides; format: in vivo, rat
Method: For intranasal delivery, 1 mg of M89b was first dissolved in 566 µl 2,2,2-trifluorethanol, 566 µl 10% (2-hydroxypropyl)-ß-cyclodextrin (HBC), and 1 µl acetic acid and incubated at 60 °C for 20 min. Another 566 µl of 10% HBC were added. The peptide was then dried in a speed-vac, and the dried pellet was dissolved in 1132 µl water by vortexing and incubation at 60 °C. M871 and GALP were purchased from GL Biochem. M871 was dissolved in saline containing 10% HBC. GALP was dissolved in saline containing 5% α-cyclodextrin.
In vivo experiments involving intranasal treatment of rats and measurement of feeding behavior were performed at the Institute for Translational Medicine, University of Pécs, Pécs, Hungary. Experiments were approved by the National Ethical Council for Animal Research (permit number, BA 02/2000–11/2018). They were also in accord with the directives of the European Communities Council on the protection of animals used for scientific purposes (86/609/EEC, Directive 2010/63/EU of the European Parliament and of the Council).
Spontaneous food intake was measured in non-fasted male Wistar rats (3 months old) for 24 h following intranasal application of peptide solutions by an automated FeedScale System (Columbus, OH). Each group of animals (6–9 rats/group) was habituated to the individual chambers of the FeedScale System until daily food intake and changes in the body weight of the animals had normalized. This habituation, which lasted for a minimum of 2 weeks, allowed adaptation to the environment, to the powdered chow and to the feeder. This powdered form of chow prevented food hoarding. A special digital scale under the cages provided precise automated measurement and continuous recording of the amount of consumed food. During the measurement of the cumulative 24 h food intake, data were collected every 30 min.
Intranasal applications were performed at 06:00 PM at the onset of the active nighttime period of rats. First, the body weight of animals was recorded, and then they were intraperitoneally anesthetized with ketamine (52 mg/kg) and xylazine (9 mg/kg). For the intranasal application of peptides, rats were placed on their backs, and 25–30 µl of peptide solution was injected gently per nostril (total volume of 50–60 μl per rat depending on the administered peptides) using a 10-μl pipette. The following solutions were applied: M89b (25 nmol in 60 µl saline containing 10% HBC); GALP (17.5 nmol in 50 µl saline containing 5% α-cyclodextrin); M871 (219 nmol in 60 µl 10% HBC); and M89b + M871 (25 nmol M89b + 219 nmol M871 in 60 µl 10% HBC). […] At 24 h post-treatment, the body weight of the animals was measured.
Statistical analysis was performed with SPSS 11.0. […] Body weight data were analyzed by applying a one-way ANOVA with Tukey’s post hoc test. […]

[2] = mouse, in vivo, 1 mg/kg
Method: Pharmacokinetics studies were performed at Pharmidex UK. The animal experimental protocols were approved by the UK Government Home Office and carried out in accordance with the guidelines of the Animals (Scientific Procedures) Act (1986). Ethical approval was subject to UK Home Office license number P651A96A4.
One mg HPLC-purified and HPLC-quantified M89b was dissolved in 1 ml Milli-Q followed by thorough vortexing and warming the solution for 10 min to 60 °C. From this solution, a dilution in 0.1% 2-hydroxypropyl-β-cyclodextrin was made. Male CD1 mice (weighing 26.5 to 32.9 g, n = 3 per time point) were used for the pharmacokinetic studies. Mice were given 1 mg/kg M89b either subcutaneously (s.c.) or intravenously (i.v.). Samples were collected after 2, 5, 10, 15, 30, 60, 120, and 240 min. Post-dosing, the 4 h mice were individually housed in metabolic cages for cold collection of urine in pre-weighed tubes which were re-weighed prior to storage. At each scheduled sampling time point, terminal blood was collected from each animal by cardiac puncture in heparin-containing tubes (20 IU heparin/mL of blood) kept on wet ice. The blood was centrifuged (5 min at 21, 100 g at 4 °C), and the resulting plasma was transferred to the corresponding labeled polypropylene tubes prior to storage. […]

Which “Stimulation of GAL1R, luciferase reporter” value (GAL1R) does the source give for `CC(C)C[C@H](NC(=O)[C@H](CC(C)C)NC(=O)[C@H](Cc1ccc(O)cc1)NC(=O)CNC(=O)[C@H](C)NC(=O)[C@H](C)NC(=O)[C@H](CC(N)=O)NC(=O)[C@H](CC(C)C)NC(=O)[C@H](CC(N)=O)NC(=O)[C@H](Cc1c[nH]c2ccccc12)NC(=O)[C@@H]1CCC(=O)N1)C(=O)N[C@@H](C)C(=O)N[C@H]1C(=O)N[C@@H](Cc2c[nH]cn2)C(=O)N[C@@H](C)C(=O)N[C@H](C(=O)NCC(=O)O)CS[C@H]1C` [Variant M89b, G1pE-T3N-S6A-G12A-methyllanthionine[13–16]-galanin-(1–17)] ([pGlu]WNLNAAGYLLA[dAbu(3S-yl)]HACG-OH; thioether 13-16; C-terminus assumed) here?
The value was “inability to stimulate”.

And the “Loss of initial body weight at 24 h post-treatment” value ([1]; intranasal 25 nmol in 10% HBC, p = 0.009 vs. vehicle)?
Its value is 2.6%.

And the “Reduction of 24 h food intake compared to vehicle” value ([1]; intranasal 25 nmol in 60 µl saline with 10% HBC, p = 0.006 vs vehicle)?
The value was 23%.

And the “Detection in urine samples” value [2]?
Its value is “not detected”.

And the “Detection in brain tissue” value ([2]; sc)?
Its value is “not detected”.

From publication PMC8804135 (Neurotherapeutics, 2021)
